Consider four compounds from patent publication US20250066727A1, “COMPOSITIONS AND METHODS FOR CULTURING STEM CELLS” (Beijing TheraXyte BioScience Co. Ltd., priority 2021, published 2025).

Assay type in all cases: cell-based
The subject of test [1] is adult KSCs. The experiment in a line: Growth supplement function assay (EdU / p63). To be noted: 24 hours; for concentration that could promote adult KSCs proliferation (EdU/p63 ratio): added to KSFX-free basal medium. On the procedure: For the EdU (5-ethynyl-2′-deoxyuridine) assay, 5×10^3 cells were plated to a well of the 96-well cell culture plate and cultured for overnight. On the second day, the cells were treated with 10 μM EdU for 3 hours at 37° C. The cells were washed with PBS and then fixed with 4% formaldehyde for 30 min at RT. The cells were washed with PBS and then permeabilized with 0.1% Triton for 20 min at RT. The cells were washed with PBS and then labeled with freshly prepared EdU labeling buffer containing 5 μM of Sulfo-Cyanine 3 azide, 4 mM of Copper(II) sulfate pentahydrate, 2 mg/mL of Sodium L-ascorbate in PBS for 30 min at RT. The cells were washed with PBS and labeled with Hoechst if needed. Finally, the plate was scanned and analyzed by Celllnsight CX5 HCA reader.
Cells were washed with PBS once and then fixed with 4% formaldehyde for 30 min at room temperature (RT). The cells were washed with PBS and then permeabilized with 0.1% Triton for 20 min at RT The cells were washed with PBS and then blocked with 3% BSA for 1 hr at RT. Then the cells were incubated with primary antibodies such as anti-KRT14, or anti-p63 overnight at 4° C. The cells were washed with PBS and labeled with the secondary antibody such as Goat anti-Mouse Alexa Fluor 488, Goat anti-Rabbit Alexa Fluor 647, and Hoechst if needed. Finally, the plate was scanned and analyzed by CellInsight CX5 HCA reader. Microscopy was captured with Confocal Microscope A1 HD25.
Different concentrations of each factor were added to the KSFX-free basal medium and the adult KSCs were cultured for 24 hours. Then cells were labeled with EdU as well as the KSCs marker p63. The ratio of EdU/p63 indicates the proliferation rate of KSCs, and the p63 count indicates the total cell number which is a result of cell proliferation and cell death.

The subject of test [2] is adult KSCs. The experiment in a line: Calcium concentration function assay in KSFX-free basal medium. On the procedure: (§1) For long-term proliferation assay, cells were continuously passaged on the 6-well cell culture plate. For each passage, 2×10^5 viable cells were plated and then cultured for about 5 days, when the cells were ˜90% confluent, cells were passaged and the cell number as well as the viability with the cell counter were recorded. Microscopy was performed with Eclipse TS100 (Nikon).
The effect of calcium concentrations in the KSFX-free basal medium on the proliferation and differentiation of adult KSCs were tested. Cells were cultured in different concentrations of calcium, including 0 mM, 0.05 mM, 0.15 mM, 0.5 mM, and 1.5 mM for 10 passages. As shown in FIG. 8 and FIG. 9A, withdraw of calcium led to the growth stop of adult KSCs after 3 passages.

The test system of test [3] is adult KSCs. The experiment in a line: Coating matrix function assay: attachment and spreading of adult KSCs in KSFX-free basal medium. On the procedure:
Coating Matrix Preparation—Coating matrix such as Collagen I, Poly-D-Lysine (PDL), Matrigel, rh-Fibronectin, and rh-Laminin 521 were prepared according to the instructions of the manufacture (Table 1). Briefly, for one well of the 6-well cell culture plate, 1 mL of the working solution was added to the surface of the well and the plate was incubated at the recommended condition. Then the well was washed once with 1 mL of PBS and ready to be used.
The keratinocyte stem cells (KSCs) were isolated from donated foreskin or fetal skin tissue. Briefly, the skin tissue was cleaned up with 70% ethanol and washed several times with PBS containing antibiotics. The tissue in PBS was collected, trimmed away any fat and loose fascia, and cut into strips approximately 0.5 cm×1.5 cm. The tissue was submerged in dispase and treated overnight at 4° C. The epidermis was then separated from the dermis and washed with PBS several times. All the epidermis was collected into one tube containing the TrypLE and incubated for 30 minutes at 37° C. Enough PBS was added to neutralize the TrypLE and the solution was pipetted up and down to suspend the cells. The cell suspension was passed through a 70 μm cell strainer, and then the cells were pelleted by centrifugation at 300 g for 10 minutes. The cell pellet was resuspended in culture medium and the concentration of the viable cells/mL was determined. 2×10^4 viable epidermal cells/cm^2 was plated on culture flask treated with coating matrix, and then the flask was incubated in a 37° C., 95% air/5% CO2 saturated humidity chamber. The culture medium was changed every 48 hours. Once the cultures were ˜80% confluent, the cells were subcultured and/or cryopreserved using a freezing medium. For subculture, cells were washed once by PBS then treated with TrypLE for no more than 6 min at 37° C. PBS was added to neutralize the TrypLE, and then the tube was centrifuged at 300 g for 10 min. New flasks were seeded at 1-2×10^4 cells/cm^2.
The function of each coating matrix listed in Table 1 was tested for the attachment and spreading of adult KSCs. […]

Test [4] concerns adult KSCs. The experiment in a line: Long-term proliferation of adult KSCs on coating matrix in KSFX-free basal medium. To be noted: 5 passages. On the procedure: as §1
Further, the proliferation functions of FN, COLI, and LN was also tested in the KSFX-free basal medium. Adult KSCs were continuously passaged and the population doubling (PD) curves were calculated.

Where [5] appears, read: 1.5 mM calcium, KSFX-free basal medium.

As to `C[C@@H](N)[C@H]1CC[C@H](C(=O)Nc2ccncc2)CC1` [Y-27632], the “concentration that could promote adult KSCs proliferation (EdU/p63 ratio)” value in the test with adult KSCs [1] is given as “at least 1 μM”. In addition, the “change of the total cell number (p63 count) compared with the blank” value with adult KSCs [1] (at least 1 μM (such as 1-10 μM), KSFX-free basal medium) is reported as “two-fold change”.

For `[Ca+2]` [calcium], the “passages after which adult KSCs stopped growing” value in the test with adult KSCs [2] (0 mM calcium (withdraw of calcium), KSFX-free basal medium) amounted to 3 passages; in the test with adult KSCs [2] (setting [5]), 5 passages. Moreover, the “proliferation rate of adult KSCs” value in the test with adult KSCs [2] (0.05 mM calcium, later passages) is “started to grow slower later”. The “proliferation of adult KSCs” value with adult KSCs [2] (0.5 mM calcium, KSFX-free basal medium) is “could proliferate longer, with more cell-to-cell connections”. The “differentiation of adult KSCs” value with adult KSCs [2] (setting [5]) is “most of cells had differentiated with the collapsed nucleus”. Further, the “calcium concentration that can better support the long-term expansion of adult KSCs” value in the test on adult KSCs [2] (KSFX-free basal medium, 10 passages) was 0.1 to 1.0 mM.

Turning to `Cc1cccc(-c2nn(C(=S)Nc3ccccc3)cc2-c2ccnc3ccccc23)n1` [A 83-01], the “concentration that could promote adult KSCs proliferation (EdU/p63 ratio)” value with adult KSCs [1] is on record as “at least 0.5 μM”.

Take “COLI: Collagen I coating matrix, extracted from rat tail, 50 μg/mL”: the “attachment and spreading of adult KSCs” value is “attached to the plate and spread with a flatten morphology” with adult KSCs [3] (after 30 min of culturing, bright-field microscopy); “fully spread” with adult KSCs [3] (after 2 hours of culturing). In the test on adult KSCs [3] (overall), the “attachment/spreading function, comparison among the coating matrix tested” value is “performed better functions compared with MAT and PDL”. For the same compound, the “long-term expansion of adult KSCs in vitro” value in the test with adult KSCs [4] is recorded as “supported the long-term expansion of adult KSCs in vitro”. The “proliferation of adult KSCs (population doubling) compared with blank” value with adult KSCs [4] (continuously passaged) is on record as “could promote the proliferation of adult KSCs”.
